According to US10681909B2, “Herbicidal triazoles” (FMC Corporation, priority 2014, dated 2020):

Columns and labels:
barnyardgrass [1] = assay: Test A preemergence; format: in vivo, Echinochloa crus-galli; conditions: Echinochloa crus-galli, pre-emergence, 240 h, 0 to 100 scale (0 no effect, 100 complete control), read-out: Plant response rating, Barnyardgrass
Procedure, shortened: (§1)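 Loam/sand soil mix; compound in non-phytotoxic solvent + surfactant. Pre: directed soil spray right after planting seed. Post: potted plants 2–10 cm, 1–2 leaf stage, sprayed with same formulation.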

foxtail, giant [2] = assay: Test A preemergence; format: in vivo, Setaria faberii; conditions: Setaria faberi, pre-emergence, 240 h, 0 to 100 scale (0 no effect, 100 complete control), read-out: Plant response rating, Foxtail, Giant
Procedure, shortened: as §1

pigweed [3] = assay: Test A preemergence; format: in vivo, Amaranthus retroflexus; conditions: Amaranthus retroflexus, pre-emergence, 240 h, 0 to 100 scale (0 no effect, 100 complete control), read-out: Plant response rating, Pigweed
Procedure, shortened: as §1

barnyardgrass [4] = assay: Test A postemergence; format: in vivo, Echinochloa crus-galli; conditions: Echinochloa crus-galli, post-emergence, 240 h, 0 to 100 scale (0 no effect, 100 complete control), approx. 10 d, read-out: Plant response rating, Barnyardgrass
Procedure, shortened: as §1

foxtail, giant [5] = assay: Test A postemergence; format: in vivo, Setaria faberii; conditions: Setaria faberi, post-emergence, 240 h, 0 to 100 scale (0 no effect, 100 complete control), approx. 10 d, read-out: Plant response rating, Foxtail, Giant
Procedure, shortened: as §1

pigweed [6] = assay: Test A postemergence; format: in vivo, Amaranthus retroflexus; conditions: Amaranthus retroflexus, post-emergence, 240 h, 0 to 100 scale (0 no effect, 100 complete control), approx. 10 d, read-out: Plant response rating, Pigweed
Procedure, shortened: as §1

wheat = assay: Test A postemergence; format: in vivo, Triticum aestivum; conditions: Triticum aestivum, post-emergence, 240 h, 0 to 100 scale (0 no effect, 100 complete control), approx. 10 d, read-out: Plant response rating, Wheat
Procedure, shortened: as §1

corn [7] = assay: Test A postemergence; format: in vivo, Zea mays; conditions: Zea mays, post-emergence, 240 h, 0 to 100 scale (0 no effect, 100 complete control), approx. 10 d
Procedure, shortened: as §1

rice = assay: Test B flooded paddy test; format: in vivo, Oryza sativa; conditions: Oryza sativa, 360 h, 250 g ai/ha, applied to paddy water at 2-leaf stage, visual rating after 13 to 15 d, scale 0 (no effect) to 100 (complete control), read-out: Plant response rating, Rice, Flood
Procedure, shortened: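 Pots were flooded to 3 cm above the soil at treatment, and compounds were applied directly into the paddy water. That depth was held throughout. After 13 to 15 d in a greenhouse, plants were rated visually against untreated controls.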

ryegrass, Italian = assay: Test C postemergence; format: in vivo, Lolium multiflorum
Description: (§2) Seeds of plant species selected from blackgrass (Alopecurus myosuroides), ryegrass, Italian (Italian ryegrass, Lolium multiflorum), wheat (winter wheat, Triticum aestivum), galium (catchweed bedstraw, Galium aparine), corn (Zea mays), crabgrass, large (large crabgrass, Digitaria sanguinalis), foxtail, giant, (giant foxtail, Setaria faberii), johnsongrass (Sorghum halepense), lambsquarters (Chenopodium album), morningglory (Ipomoea coccinea), nutsedge, yellow (yellow nutsedge, Cyperus esculentus), pigweed (Amaranthus retroflexus), ragweed (common ragweed, Ambrosia elatior), soybean (Glycine max), barnyardgrass (Echinochloa crus-galli), oilseed rape (Brassica napus), waterhemp (common waterhemp, Amaranthus rudis), and velvetleaf (Abutilon theophrasti) were planted into a blend of loam soil and sand and treated preemergence with test chemicals formulated in a non-phytotoxic solvent mixture which included a surfactant. At the same time, plants selected from these crop and weed species and also chickweed (common chickweed, Stellaria media), oat, wild (wild oat, Avena fatua), and kochia (Kochia scoparia), were planted in pots containing Sunshine Redi-Earth® planting medium comprising spaghnum peat moss, vermiculite, starter nutrients and dolomitic limestone and treated with postemergence applications of test chemicals formulated in the same manner. Plants ranged in height from 2 to 18 cm (1- to 4-leaf stage) for postemergence treatments. […] A dash (-) response means no test result.

wheat (winter wheat) = assay: Test C postemergence; format: in vivo, Triticum aestivum
Description: as §2

galium = assay: Test C postemergence; format: in vivo, Galium aparine
Description: as §2

corn [8] = assay: Test C postemergence; format: in vivo, Zea mays
Description: as §2

crabgrass, large = assay: Test C postemergence; format: in vivo, Digitaria sanguinalis
Description: as §2

lambsquarters = assay: Test C postemergence; format: in vivo, Chenopodium album
Description: as §2

nutsedge, yellow = assay: Test C postemergence; format: in vivo, Cyperus esculentus
Description: as §2

pigweed [9] = assay: Test C postemergence; format: in vivo, Amaranthus retroflexus
Description: as §2

soybean = assay: Test C postemergence; format: in vivo, Glycine max
Description: as §2

oilseed rape = assay: Test C postemergence; format: in vivo, Brassica napus
Description: as §2

waterhemp = assay: Test C postemergence; format: in vivo, Amaranthus rudis
Description: as §2

velvetleaf = assay: Test C postemergence; format: in vivo, Abutilon theophrasti
Description: as §2

CCCc1nc(-c2ccc(F)cc2)nn1Cc1ccnc(C(F)(F)F)c1 [Compound 6, 4-[[3-(4-fluorophenyl)-5-propyl-1H-1,2,4-triazol-1-yl]methyl]-2-(trifluoromethyl)pyridine]
pest or weed control at 125 g/ha (barnyardgrass [1]; 125 g ai/ha): 80%
pest or weed control at 500 g/ha (barnyardgrass [1]; 500 g ai/ha, approx. 10 d): 100%
pest or weed control at 125 g/ha (foxtail, giant [2]; 125 g ai/ha): 100%
pest or weed control at 500 g/ha (foxtail, giant [2]; 500 g ai/ha, approx. 10 d): 100%
pest or weed control at 125 g/ha (pigweed [3]; 125 g ai/ha): 100%
pest or weed control at 500 g/ha (pigweed [3]; 500 g ai/ha, approx. 10 d): 100%
pest or weed control at 125 g/ha (barnyardgrass [4]; 125 g ai/ha): 80%
pest or weed control at 500 g/ha (barnyardgrass [4]; 500 g ai/ha): 90%
pest or weed control at 125 g/ha (foxtail, giant [5]; 125 g ai/ha): 90%
pest or weed control at 500 g/ha (foxtail, giant [5]; 500 g ai/ha): 90%
pest or weed control at 125 g/ha (pigweed [6]; 125 g ai/ha): 50%
pest or weed control at 500 g/ha (pigweed [6]; 500 g ai/ha): 100%
plant injury at 125 g/ha (wheat; 125 g ai/ha): 40%
plant injury at 500 g/ha (wheat; 500 g ai/ha): 70%
Corn plant response rating (crop injury, 0 = no effect, 100 = complete kill) at 125 g/ha (corn [7]; 125 g ai/ha): 40%
Corn plant response rating (crop injury, 0 = no effect, 100 = complete kill) at 500 g/ha (corn [7]; 500 g ai/ha): 70%
plant injury at 250 g/ha (rice): 50%
Plant response rating (scale of 0 to 100 where 0 is no effect and 100 is complete control) (ryegrass, Italian; 31 g ai/ha): 5
Plant response rating (scale of 0 to 100 where 0 is no effect and 100 is complete control) (ryegrass, Italian; 62 g ai/ha): 5
Plant response rating (scale of 0 to 100 where 0 is no effect and 100 is complete control) (ryegrass, Italian; 125 g ai/ha): 5
Plant response rating (scale of 0 to 100 where 0 is no effect and 100 is complete control) (ryegrass, Italian; 250 g ai/ha): 10
Plant response rating (scale of 0 to 100 where 0 is no effect and 100 is complete control) (wheat (winter wheat); 31 g ai/ha): 5
Plant response rating (scale of 0 to 100 where 0 is no effect and 100 is complete control) (wheat (winter wheat); 62 g ai/ha): 10
Plant response rating (scale of 0 to 100 where 0 is no effect and 100 is complete control) (wheat (winter wheat); 125 g ai/ha): 15
Plant response rating (scale of 0 to 100 where 0 is no effect and 100 is complete control) (wheat (winter wheat); 250 g ai/ha): 15
Plant response rating (scale of 0 to 100 where 0 is no effect and 100 is complete control) (galium; 31 g ai/ha): 80
Plant response rating (scale of 0 to 100 where 0 is no effect and 100 is complete control) (galium; 62 g ai/ha): 80
Plant response rating (scale of 0 to 100 where 0 is no effect and 100 is complete control) (galium; 125 g ai/ha): 90
Plant response rating (scale of 0 to 100 where 0 is no effect and 100 is complete control) (galium; 250 g ai/ha): 90
Plant response rating (scale of 0 to 100 where 0 is no effect and 100 is complete control) (corn [8]; 31 g ai/ha): 10
Plant response rating (scale of 0 to 100 where 0 is no effect and 100 is complete control) (corn [8]; 62 g ai/ha): 15
Plant response rating (scale of 0 to 100 where 0 is no effect and 100 is complete control) (corn [8]; 125 g ai/ha): 20
Plant response rating (scale of 0 to 100 where 0 is no effect and 100 is complete control) (corn [8]; 250 g ai/ha): 50
Plant response rating (scale of 0 to 100 where 0 is no effect and 100 is complete control) (crabgrass, large; 31 g ai/ha): 10
Plant response rating (scale of 0 to 100 where 0 is no effect and 100 is complete control) (crabgrass, large; 62 g ai/ha): 15
Plant response rating (scale of 0 to 100 where 0 is no effect and 100 is complete control) (crabgrass, large; 125 g ai/ha): 25
Plant response rating (scale of 0 to 100 where 0 is no effect and 100 is complete control) (crabgrass, large; 250 g ai/ha): 65
Plant response rating (scale of 0 to 100 where 0 is no effect and 100 is complete control) (lambsquarters; 31 g ai/ha): 65
Plant response rating (scale of 0 to 100 where 0 is no effect and 100 is complete control) (lambsquarters; 62 g ai/ha): 70
Plant response rating (scale of 0 to 100 where 0 is no effect and 100 is complete control) (lambsquarters; 125 g ai/ha): 85
Plant response rating (scale of 0 to 100 where 0 is no effect and 100 is complete control) (lambsquarters; 250 g ai/ha): 85
Plant response rating (scale of 0 to 100 where 0 is no effect and 100 is complete control) (nutsedge, yellow; 31 g ai/ha): 5
Plant response rating (scale of 0 to 100 where 0 is no effect and 100 is complete control) (nutsedge, yellow; 62 g ai/ha): 5
Plant response rating (scale of 0 to 100 where 0 is no effect and 100 is complete control) (nutsedge, yellow; 125 g ai/ha): 5
Plant response rating (scale of 0 to 100 where 0 is no effect and 100 is complete control) (nutsedge, yellow; 250 g ai/ha): 5
Plant response rating (scale of 0 to 100 where 0 is no effect and 100 is complete control) (pigweed [9]; 31 g ai/ha): 80
Plant response rating (scale of 0 to 100 where 0 is no effect and 100 is complete control) (pigweed [9]; 62 g ai/ha): 80
Plant response rating (scale of 0 to 100 where 0 is no effect and 100 is complete control) (pigweed [9]; 125 g ai/ha): 85
Plant response rating (scale of 0 to 100 where 0 is no effect and 100 is complete control) (pigweed [9]; 250 g ai/ha): 85
Plant response rating (scale of 0 to 100 where 0 is no effect and 100 is complete control) (soybean; 31 g ai/ha): 35
Plant response rating (scale of 0 to 100 where 0 is no effect and 100 is complete control) (soybean; 62 g ai/ha): 40
Plant response rating (scale of 0 to 100 where 0 is no effect and 100 is complete control) (soybean; 125 g ai/ha): 60
Plant response rating (scale of 0 to 100 where 0 is no effect and 100 is complete control) (oilseed rape; Oilsee Rape, 250 g ai/ha): 95
Plant response rating (scale of 0 to 100 where 0 is no effect and 100 is complete control) (oilseed rape; Oilseed Rape, 31 g ai/ha): 55
Plant response rating (scale of 0 to 100 where 0 is no effect and 100 is complete control) (oilseed rape; Oilseed Rape, 62 g ai/ha): 55
Plant response rating (scale of 0 to 100 where 0 is no effect and 100 is complete control) (oilseed rape; Oilseed Rape, 125 g ai/ha): 95
Plant response rating (scale of 0 to 100 where 0 is no effect and 100 is complete control) (waterhemp; 31 g ai/ha): 80
Plant response rating (scale of 0 to 100 where 0 is no effect and 100 is complete control) (waterhemp; 62 g ai/ha): 80
Plant response rating (scale of 0 to 100 where 0 is no effect and 100 is complete control) (waterhemp; 125 g ai/ha): 80
Plant response rating (scale of 0 to 100 where 0 is no effect and 100 is complete control) (waterhemp; 250 g ai/ha): 85
Plant response rating (scale of 0 to 100 where 0 is no effect and 100 is complete control) (velvetleaf; 31 g ai/ha): 55
Plant response rating (scale of 0 to 100 where 0 is no effect and 100 is complete control) (velvetleaf; 62 g ai/ha): 55
Plant response rating (scale of 0 to 100 where 0 is no effect and 100 is complete control) (velvetleaf; 125 g ai/ha): 55
Plant response rating (scale of 0 to 100 where 0 is no effect and 100 is complete control) (velvetleaf; 250 g ai/ha): 55
